According to BigSolDB 2.1:

C[C@@H]1O[C@@H](O[C@H]2[C@H](Oc3cc(O)c(C(=O)CCc4ccc(O)cc4)c(O)c3)O[C@H](CO)[C@@H](O)[C@@H]2O)[C@H](O)[C@H](O)[C@H]1O
solubility (mole fraction)
Settings | 298.15 K | 308.15 K | 318.15 K | 328.15 K | 338.15 K
in ethyl acetate | 0.00031 | 0.000369 | 0.000491 | 0.000668 | 0.000776
in water | 2.13e-05 | 3.78e-05 | 7.12e-05 | 0.000166 | 0.000375
